SMILES strings stand for the structures.

1 compound from patent US20190098891A1, “Compositions and Methods for Biopreservation” (Augusta University Research Institute, Inc., priority 2017, published 2019) can be followed below.

For this assay, the system named is mouse M II oocytes. Nature of the assay: Post-rehydration survival of mouse M II oocytes after fast or slow desiccation. It is filed as cell-based. An excerpt: A phosphate-buffered saline (PBS) containing 0.4% bovine serum albumin (BSA) was used as a starting desiccation medium based on its simple composition that was preferable to not complicate the experimental outcome due to components of a complex desiccation medium. Further, the objective of these experiments was to test the effect of the desiccation duration without bringing specimen into a glassy state.
Slow and fast desiccation are can be achieved by adjusting several variables (e.g., temperature and flow rate of dry nitrogen gas, temperature of stage warmer, droplet size, etc.). Slow and fast desiccation of M II oocytes were achieved by changing the flow rate of dry nitrogen gas using a flowmeter (Gilmont Instruments) while performing the experiments at ambient temperature.
The fast protocol required approximately 9 minutes to desiccate a sample to a residual moisture content of 5% while the same residual moisture content was obtained in ca. 20 minutes in the case of slow desiccation. […]
The residual moisture content (% RM) of samples was determined gravimetrically using the following formula: […]

For the compound `OC[C@H]1O[C@H](O[C@H]2O[C@H](CO)[C@@H](O)[C@H](O)[C@H]2O)[C@H](O)[C@@H](O)[C@@H]1O` [trehalose], the desiccation tolerance entry is listed as “improves the desiccation tolerance”.
